Experiments:
[1] = target: T1, Bromodomain-containing protein 4 (Homo sapiens, UniProt O60885); experiment: Binding affinity to His-6 tagged BRD4 BD1 bromodomain (unknown origin) incubated for 10 mins by TR-FRET assay
[2] = target: T1, Bromodomain-containing protein 4; experiment: Binding affinity to His-6 tagged BRD4 BD2 bromodomain (unknown origin) incubated for 10 mins by TR-FRET assay

IC50 [1]: 3.3 nM
IC50 [2]: 3.7 nM
SMILES: COC(=O)c1cc2c(cc1CS(C)(=O)=O)-c1cn(C)c(=O)c3[nH]cc(c13)CN2c1ncc(C#CCN)cc1F

From ChEMBL document CHEMBL4706766, “Novel Bromodomain BRD4 Inhibitors for Treating Cancer” (ACS Med Chem Lett, 2021)
